Results taken from patent publication US20150018311A1, “THERAPEUTIC BORON-CONTAINING COMPOUNDS” (priority 2012, published 2015).

Key:
Assay in all cases: Growth in liquid media in presence of test compound
Type in all cases: cell-based
[1] = test system: Mycobacterium tuberculosis (H37Rv)
[2] = test system: Pseudomonas aeruginosa (ATCC 27853)
Excerpt: (§1) Test organisms used were the bacterial strains Escherichia coli (ATCC 25922), Pseudomonas aeruginosa (ATCC 27853), Staphylococcus aureus (ATCC 25923), Streptococcus pyogenes (ATCC 19615), and Mycobacterium tuberculosis (H37Rv), and the yeast strain Candida albicans (ATCC 90028).
(§2) The liquid media used for growth were Luria-Bertani (Becton Dickinson, Sparks, Md.) and Mueller-Hinton (bio-Merieux, Paris, France) broths, but with Saburo medium for Candida and Middlebrook 7H9 medium (Difco) for mycobacteria.
(§3) The strains were grown at 37° C. and after suitable cell concentrations had been reached, 100 μL of each cell suspension was added to a tube with growth media and test compound. Cultivation of the bacteria was then carried out in the presence of each test compound at 37° C. and the tubes examined for visible growth. The compounds were tested at concentrations of either 500 mg/l, 50 mg/l or 5 mg/l. This assay was repeated twice.
(§4) Some compounds were only tested against some test organisms. It will be appreciated that the charge of these molecules will depend on the environment, some of the Examples are shown with a suitable counter ion, some without.

[3] = test system: Staphylococcus aureus (ATCC 25923)
Excerpt: as §1, §2, §3, §4

[4] = test system: Escherichia coli (ATCC 25922)
Excerpt: as §1, §2, §3, §4

[5] = test system: Streptococcus pyogenes (ATCC 19615)
Excerpt: as §1, §2, §3, §4

[6] = test system: Candida albicans (ATCC 90028)
Excerpt: as §1, §2, §3, §4

| Compound | Growth in the presence of test compound, M. tuberculosis ([1]; 5 mg/L) | Growth in the presence of test compound, M. tuberculosis ([1]; 50 mg/L) | Growth in the presence of test compound, M. tuberculosis ([1]; 500 mg/L) | Growth in the presence of test compound, P. aeruginosa ([2]; 5 mg/L) | Growth in the presence of test compound, P. aeruginosa ([2]; 50 mg/L) | Growth in the presence of test compound, P. aeruginosa ([2]; 500 mg/L) | Growth in the presence of test compound, S. aureus ([3]; 5 mg/L) | Growth in the presence of test compound, S. aureus ([3]; 50 mg/L) | Growth in the presence of test compound, S. aureus ([3]; 500 mg/L) | Growth in the presence of test compound, E. coli ([4]; 5 mg/L) | Growth in the presence of test compound, E. coli ([4]; 50 mg/L) | Growth in the presence of test compound, E. coli ([4]; 500 mg/L) | Growth in the presence of test compound, S. pyogenes ([5]; 5 mg/L) | Growth in the presence of test compound, S. pyogenes ([5]; 50 mg/L) | Growth in the presence of test compound, S. pyogenes ([5]; 500 mg/L) | Growth in the presence of test compound, C. albicans ([6]; 5 mg/L) | Growth in the presence of test compound, C. albicans ([6]; 50 mg/L) | Growth in the presence of test compound, C. albicans ([6]; 500 mg/L) |
| --- | --- | --- | --- | --- | --- | --- | --- | --- | --- | --- | --- | --- | --- | --- | --- | --- | --- | --- |
| CC(B1OC2CC3CC(C3(C)C)C2(C)O1)C(Cc1ccccc1)NC(=O)C(N)CCCCN (stereo not drawn) [Compound 30] | + | − | − | + | + | − | + | + | − | + | + | − | + | + | − | + | + | − |
| CC1(C)C2CC3OB(C(Cc4ccccc4)C(Cc4ccccc4)NC(=O)C(N)CCCCN)OC3(C)C1C2 (stereo not drawn) [Compound 31] | + | − | − | + | + | − | + | + | − | + | + | − | + | + | − | + | + | − |
| C[C@H](N)C(=O)NC[C@@H](Cc1ccc(OC(F)(F)F)cc1)B1OC2CC3CC(C3(C)C)[C@@]2(C)O1.Cl (stereo partly drawn) [Compound 56] | + | − | − | + | + | + | + | ± | + | + | + | + | + | − | + | + | ± | ± |
| CC1(C)C2CC3OB([C@H](CCc4ccccc4)CNC(=O)[C@@H](N)CCCCN)O[C@]3(C)C1C2 (stereo partly drawn) [Compound 19] | + | − | − | + | + | − | + | + | ± | + | + | − | + | + | − | + | + | − |
| CC1(C)C2CC3OB(CC(CCc4ccccc4)NC(=O)C(N)CCCCN)OC3(C)C1C2 (stereo not drawn) [Compound 7] | + | + | − | + | + | ± | + | + | − | + | + | − | + | + | − | + | + | − |
| CC(B1OC2CC3CC(C3(C)C)C2(C)O1)C(Cc1ccccc1)NC(=O)C(Cc1ccccc1)NC(=O)C(N)CCCCN (stereo not drawn) [Compound 36] | + | − | − | + | + | − | + | + | − | + | + | − | + | + | − | + | + | ± |
| CC1(C)C2CC3OB([C@H](CCc4ccccc4)CNC(=O)[C@H](N)CCCCN)O[C@]3(C)C1C2 (stereo partly drawn) [Compound 20] | + | − | − | + | ± | ± | + | − | ± | + | + | + | + | ± | ± | + | ± | ± |
| NCCCC[C@H](N)C(=O)NC[C@@H](Cc1ccccc1)B(O)O [Compound 38] | − | − | − | + | + | + | + | + | ± | + | + | ± | + | + | − | + | + | ± |
| CC1(C)C2CC3OB(C(CNC(=O)C(N)CCCCN)Cc4ccc(OC(F)(F)F)cc4)OC3(C)C1C2.Cl.Cl (stereo not drawn) [Compound 53] | ± | − | − | + | + | − | + | + | + | + | + | + | + | + | − | + | + | − |
